In patent publication US20260232812A1, “BIFUNCTIONAL MOLECULES FOR TARGETED PROTEIN DEGRADATION” (Amphista Therapeutics Limited, priority 2022, published 2026):

Molecular target: T1, BRD4 (Homo sapiens, UniProt O60885)
T1 construct: HEK293 containing a HiBit insertion for BRD4; endogenous in cells; host or cells: HEK293 with a HiBiT insertion for BRD4
Assay: Assay 1 - Degradation of HiBit-BRD4 in HEK293
Format: cell-based
Details: HiBit-BRD4 in HEK293, 6 h treatment
Procedure: 1.1 Assay 1-Degradation of HiBit-BRD4 in HEK293
HEK293 containing a HiBit insertion for BRD4 were plated in 384-well tissue culture plates at a density of 8×10^4 per well in a volume of 36 μL and incubated overnight at 37° C. and 5% CO2. Wells were treated with test compounds for 6 h prior to addition of the NanoLuc substrate and reading on a […]. Degradation data was plotted and analysed using […] (Graphpad).

| SMILES | DC50 | Dmax |
| --- | --- | --- |
| COc1ccc([C@@H]2CN(C(=O)/C(C#N)=C/c3ccn(C)n3)C[C@H]2C(=O)NCCOCCOCCOCCOCCOCCNC(=O)c2ccc(-c3ccc4c(c3)[C@H](Nc3ccc(Cl)cc3)C[C@H](C)N4C(C)=O)cc2)cc1 [Example 15ab] | 25 to 200 nM | 50 to 70% |
| COc1ccc([C@@H]2CN(C(=O)/C(C#N)=C/c3ccc(F)cc3)C[C@H]2C(=O)NCCOCCOCCOCCOCCOCCNC(=O)c2ccc(-c3ccc4c(c3)[C@H](Nc3ccc(Cl)cc3)C[C@H](C)N4C(C)=O)cc2)cc1 [Example 15ac] | > 200 nM | < 50% |
| CC(=O)N1c2ccc(-c3ccc(C(=O)NCCOCCOCCOCCOCCOCCNC(=O)[C@@H]4CN(C(=O)/C(C#N)=C/c5nccs5)C[C@H]4c4ccc(F)cc4)cc3)cc2[C@H](Nc2ccc(Cl)cc2)C[C@@H]1C [Example 15ae] | 25 to 200 nM | ≥ 70% |
| CC(=O)N1c2ccc(-c3ccc(C(=O)NCCOCCOCCOCCOCCOCCNC(=O)[C@@H]4CN(C(=O)/C(C#N)=C/C(C)(C)C)C[C@H]4c4ccc(F)cc4)cc3)cc2[C@H](Nc2ccc(Cl)cc2)C[C@@H]1C [Example 15af] | 25 to 200 nM | ≥ 70% |
| CC(=O)N1c2ccc(-c3ccc(C(=O)NCCOCCOCCOCCOCCOCCNC(=O)[C@@H]4CN(C(=O)/C(C#N)=C/c5ccn(C)n5)C[C@H]4c4ccc(F)cc4)cc3)cc2[C@H](Nc2ccc(Cl)cc2)C[C@@H]1C [Example 15ag] | 25 to 200 nM | 30 to 50% |
| CC(=O)N1c2ccc(-c3ccc(C(=O)NCCOCCOCCOCCOCCOCCNC(=O)[C@@H]4CN(C(=O)/C(C#N)=C/c5ccc(F)cc5)C[C@H]4c4ccc(F)cc4)cc3)cc2[C@H](Nc2ccc(Cl)cc2)C[C@@H]1C [Example 15ah] | > 200 nM | 30 to 50% |
| CC(=O)N1c2ccc(-c3ccc(C(=O)NCCOCCOCCOCCOCCOCCNC(=O)[C@@H]4CN(C(=O)/C(C#N)=C/c5nccs5)C[C@H]4c4cccc(C)c4)cc3)cc2[C@H](Nc2ccc(Cl)cc2)C[C@@H]1C [Example 15aj] | 25 to 200 nM | 50 to 70% |
| CC(=O)N1c2ccc(-c3ccc(C(=O)NCCOCCOCCOCCOCCOCCNC(=O)[C@@H]4CN(C(=O)/C(C#N)=C/C(C)(C)C)C[C@H]4c4cccc(C)c4)cc3)cc2[C@H](Nc2ccc(Cl)cc2)C[C@@H]1C [Example 15ak, N-(1-(4-((2S,4R)-1-acetyl-4-((4-chlorophenyl)amino)-2-methyl-1,2,3,4-tetrahydroquinolin-6-yl)phenyl)-1-oxo-5,8,11,14,17-pentaoxa-2-azanonadecan-19-yl)-1-((E)-2-cyano-4,4-dimethylpent-2-enoyl)-4-(m-tolyl)pyrrolidine-3-carboxamide] | 25 to 200 nM | ≥ 70% |
| CC(=O)N1c2ccc(-c3ccc(C(=O)NCCOCCOCCOCCOCCOCCNC(=O)[C@@H]4CN(C(=O)/C(C#N)=C/c5ccn(C)n5)C[C@H]4c4cccc(C)c4)cc3)cc2[C@H](Nc2ccc(Cl)cc2)C[C@@H]1C [Example 15al] | > 200 nM | ≥ 70% |
| CC(=O)N1c2ccc(-c3ccc(C(=O)NCCOCCOCCOCCOCCOCCNC(=O)[C@@H]4CN(C(=O)/C(C#N)=C/C(C)(C)C)C[C@H]4C)cc3)cc2[C@H](Nc2ccc(Cl)cc2)C[C@@H]1C [Example 15b] | 25 to 200 nM | ≥ 70% |
| CC(=O)N1c2ccc(-c3ccc(C(=O)NCCOCCOCCOCCOCCOCCNC(=O)[C@@H]4CN(C(=O)/C(C#N)=C/c5nccs5)C[C@H]4C(C)C)cc3)cc2[C@H](Nc2ccc(Cl)cc2)C[C@@H]1C [Example 15f] | > 200 nM | 30 to 50% |
| CC(=O)N1c2ccc(-c3ccc(C(=O)NCCOCCOCCOCCOCCOCCNC(=O)[C@@H]4CN(C(=O)/C(C#N)=C/C(C)(C)C)C[C@H]4C(C)C)cc3)cc2[C@H](Nc2ccc(Cl)cc2)C[C@@H]1C [Example 15g] | 25 to 200 nM | ≥ 70% |
| CC(=O)N1c2ccc(-c3ccc(C(=O)NCCOCCOCCOCCOCCOCCNC(=O)[C@@H]4CN(C(=O)/C(C#N)=C/c5ccn(C)n5)C[C@H]4C(C)C)cc3)cc2[C@H](Nc2ccc(Cl)cc2)C[C@@H]1C [Example 15h] | 25 to 200 nM | 50 to 70% |
| CC(=O)N1c2ccc(-c3ccc(C(=O)NCCOCCOCCOCCOCCOCCNC(=O)[C@@H]4CN(C(=O)/C(C#N)=C/c5ccc(F)cc5)C[C@H]4C(C)C)cc3)cc2[C@H](Nc2ccc(Cl)cc2)C[C@@H]1C [Example 15i] | > 200 nM | 50 to 70% |
| CC(=O)N1c2ccc(-c3ccc(C(=O)NCCOCCOCCOCCOCCOCCNC(=O)[C@@H]4CN(C(=O)/C(C#N)=C/c5nccs5)C[C@H]4CC(C)C)cc3)cc2[C@H](Nc2ccc(Cl)cc2)C[C@@H]1C [Example 15k] | 25 to 200 nM | ≥ 70% |
| CC(=O)N1c2ccc(-c3ccc(C(=O)NCCOCCOCCOCCOCCOCCNC(=O)[C@@H]4CN(C(=O)/C(C#N)=C/C(C)(C)C)C[C@H]4CC(C)C)cc3)cc2[C@H](Nc2ccc(Cl)cc2)C[C@@H]1C [Example 15l] | 25 to 200 nM | ≥ 70% |
| CC(=O)N1c2ccc(-c3ccc(C(=O)NCCOCCOCCOCCOCCOCCNC(=O)[C@@H]4CN(C(=O)/C(C#N)=C/c5ccn(C)n5)C[C@H]4CC(C)C)cc3)cc2[C@H](Nc2ccc(Cl)cc2)C[C@@H]1C [Example 15m] | 25 to 200 nM | 50 to 70% |

The next lines start with the values.

| DC50 | Dmax | SMILES |
| --- | --- | --- |
| 25 to 200 nM | 30 to 50% | CC(=O)N1c2ccc(-c3ccc(C(=O)NCCOCCOCCOCCOCCOCCNC(=O)[C@@H]4CN(C(=O)/C(C#N)=C/C(C)(C)CN5CCOCC5)C[C@H]4c4ccc(F)cc4)cc3)cc2[C@H](Nc2ccc(Cl)cc2)C[C@@H]1C [Example 15ai] |
| 25 to 200 nM | 30 to 50% | CC(=O)N1c2ccc(-c3ccc(C(=O)NCCOCCOCCOCCOCCOCCNC(=O)[C@@H]4CN(C(=O)/C(C#N)=C/C(C)(C)CN5CCOCC5)C[C@H]4c4cccc(C)c4)cc3)cc2[C@H](Nc2ccc(Cl)cc2)C[C@@H]1C [Example 15an] |
| 25 to 200 nM | 50 to 70% | CC(=O)N1c2ccc(-c3ccc(C(=O)NCCOCCOCCOCCOCCOCCNC(=O)[C@@H]4CN(C(=O)/C(C#N)=C/C(C)(C)CN5CCOCC5)C[C@H]4CC(C)C)cc3)cc2[C@H](Nc2ccc(Cl)cc2)C[C@@H]1C [Example 15o] |
| 25 to 200 nM | ≥ 70% | CC(=O)N1c2ccc(-c3ccc(C(=O)NCCOCCOCCOCCOCCOCCNC(=O)[C@@H]4CN(C(=O)/C(C#N)=C/c5nccs5)C[C@H]4C4CCCCC4)cc3)cc2[C@H](Nc2ccc(Cl)cc2)C[C@@H]1C [Example 15p] |
| 25 to 200 nM | ≥ 70% | CC(=O)N1c2ccc(-c3ccc(C(=O)NCCOCCOCCOCCOCCOCCNC(=O)[C@@H]4CN(C(=O)/C(C#N)=C/C(C)(C)C)C[C@H]4C4CCCCC4)cc3)cc2[C@H](Nc2ccc(Cl)cc2)C[C@@H]1C [Example 15q] |
| > 200 nM | 50 to 70% | CC(=O)N1c2ccc(-c3ccc(C(=O)NCCOCCOCCOCCOCCOCCNC(=O)[C@@H]4CN(C(=O)/C(C#N)=C/c5ccn(C)n5)C[C@H]4C4CCCCC4)cc3)cc2[C@H](Nc2ccc(Cl)cc2)C[C@@H]1C [Example 15r] |
| 25 to 200 nM | 50 to 70% | CC(=O)N1c2ccc(-c3ccc(C(=O)NCCOCCOCCOCCOCCOCCNC(=O)[C@@H]4CN(C(=O)/C(C#N)=C/c5ccc(F)cc5)C[C@H]4C4CCCCC4)cc3)cc2[C@H](Nc2ccc(Cl)cc2)C[C@@H]1C [Example 15s] |
| 25 to 200 nM | ≥ 70% | CC(=O)N1c2ccc(-c3ccc(C(=O)NCCOCCOCCOCCOCCOCCNC(=O)[C@@H]4CN(C(=O)/C(C#N)=C/C(C)(C)CN5CCOCC5)C[C@H]4C4CCCCC4)cc3)cc2[C@H](Nc2ccc(Cl)cc2)C[C@@H]1C [Example 15t] |
